Literature values in patent US11419915B2, “Compositions and methods for the treatment of malnutrition” (VitalneXt B.V., priority 2015, dated 2022).

Details: dose of 80 mg/kg bodyweight ursolic acid from an ethanolic extract of Sambucus chinensis; rat plasma

Which oral bioavailability does the source give for C[C@H]1[C@H](C)CC[C@]2(C(=O)O)CC[C@]3(C)C(=CC[C@@H]4[C@@]5(C)CC[C@H](O)C(C)(C)[C@@H]5CC[C@]43C)[C@H]12 [ursolic acid, 3-beta-3-hydroxy-urs-12-ene-28-oic-acid] here?
Its oral bioavailability is 0.6%.
